Reference: PubChem BioAssay (NCI)
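Step 1: Grow cells in 96-well plates. Step 2: Expose to compound for 48 hours at 5 concentrations. Step 3: Interpolate endpoints linearly; if unreached, use highest concentration. TGI denotes the concentration required for complete inhibition of growth.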

Legend:
Experiment in all cases: growth of human tumour cells (NCI), 48 h
[1] = system: MCF7 breast
[2] = system: UACC-257 melanoma
[3] = system: OVCAR-8 ovarian
[4] = system: K-562 leukemia
[5] = system: A498 renal
[6] = system: NCI-H226 lung
[7] = system: OVCAR-4 ovarian
[8] = system: NCI/ADR-RES ovarian
[9] = system: SN12C renal
[10] = system: MOLT-4 leukemia
[11] = system: SF-539 CNS
[12] = system: BT-549 breast
[13] = system: HOP-62 NSCLC
[14] = system: TK-10 renal
[15] = system: MDA-MB-435
[16] = system: HS 578T breast
[17] = system: SW-620 colon
[18] = system: MDA-N
[19] = system: M14 melanoma
[20] = system: MALME-3M melanoma
[21] = system: LOX IMVI melanoma
[22] = system: SF-268 CNS
[23] = system: OVCAR-5 ovarian
[24] = system: CAKI-1 renal
[25] = system: SK-OV-3 ovarian
[26] = system: RXF 393 renal
[27] = system: EKVX NSCLC
[28] = system: HOP-92 NSCLC
[29] = system: SR leukemia
[30] = system: OVCAR-3 ovarian
[31] = system: HT29 colon
[32] = system: SK-MEL-5 melanoma
[33] = system: A549 NSCLC
[34] = system: SNB-19 CNS
[35] = system: CCRF-CEM leukemia
[36] = system: U251 CNS
[37] = system: PC-3 prostate
[38] = system: SF-295 CNS
[39] = system: SK-MEL-28 melanoma
[40] = system: RPMI-8226 leukemia
[41] = system: T-47D breast
[42] = system: NCI-H23 lung
[43] = system: 786-0 renal
[44] = system: NCI-H522 lung
[45] = system: HL-60(TB) leukemia
[46] = system: UO-31 renal
[47] = system: SK-MEL-2 melanoma
[48] = system: MDA-MB-231 breast
[49] = system: COLO 205 colon
[50] = system: DU-145 prostate
[51] = system: HCT-116 colon
[52] = system: UACC-62 melanoma
[53] = system: HCT-15 colon
[54] = system: KM12 colon
[55] = system: NCI-H460 lung
[56] = system: IGROV1 ovarian
[57] = system: ACHN renal
[58] = system: SNB-75 CNS
[59] = system: HCC-2998 colon

O=C1CC2C(=O)C1C(C(=O)O)C2C(=O)O (stereo not drawn)
TGI [1]: > 100 µM
TGI [2]: > 100 µM
TGI [3]: > 100 µM
TGI [4]: > 100 µM
TGI [5]: > 100 µM
TGI [6]: > 100 µM
TGI [7]: > 100 µM
TGI [8]: > 100 µM
TGI [9]: > 100 µM
TGI [10]: > 100 µM
TGI [11]: > 100 µM
TGI [12]: > 100 µM
TGI [13]: > 100 µM
TGI [14]: > 100 µM
TGI [15]: > 100 µM
TGI [16]: > 100 µM
TGI [17]: > 100 µM
TGI [18]: > 100 µM
TGI [19]: > 100 µM
TGI [20]: > 100 µM
TGI [21]: > 100 µM
TGI [22]: > 100 µM
TGI [23]: > 100 µM
TGI [24]: > 100 µM
TGI [25]: > 100 µM
TGI [26]: > 100 µM
TGI [27]: > 100 µM
TGI [28]: > 100 µM
TGI [29]: > 100 µM
TGI [30]: > 100 µM
TGI [31]: > 100 µM
TGI [32]: > 100 µM
TGI [33]: > 100 µM
TGI [34]: > 100 µM
TGI [35]: > 100 µM
TGI [36]: > 100 µM
TGI [37]: > 100 µM
TGI [38]: > 100 µM
TGI [39]: > 100 µM
TGI [40]: > 100 µM
TGI [41]: > 100 µM
TGI [42]: > 100 µM
TGI [43]: > 100 µM
TGI [44]: > 100 µM
TGI [45]: > 100 µM
TGI [46]: > 100 µM
TGI [47]: > 100 µM
TGI [48]: > 100 µM
TGI [49]: > 100 µM
TGI [50]: > 100 µM
TGI [51]: > 100 µM
TGI [52]: > 100 µM
TGI [53]: > 100 µM
TGI [54]: > 100 µM
TGI [55]: > 100 µM
TGI [56]: > 100 µM
TGI [57]: > 100 µM

CC(=O)O[C@H]1CC[C@@]2(C)C(=CC[C@@H]3[C@@H]2CC[C@]2(C)c4c(cc(C#N)c(=N)n4C(C)=O)C[C@@H]32)C1
TGI [1]: 47.2 µM
TGI [2]: 33.9 µM
TGI [58]: 44.9 µM
TGI [3]: 37.6 µM
TGI [4]: > 100 µM
TGI [5]: 88.7 µM
TGI [6]: 72.8 µM
TGI [7]: 39.4 µM
TGI [8]: 39.6 µM
TGI [9]: 44.8 µM
TGI [10]: 35.8 µM
TGI [12]: 34.8 µM
TGI [13]: 49.4 µM
TGI [14]: 66.8 µM
TGI [15]: 38.5 µM
TGI [16]: 59.6 µM
TGI [17]: 47.5 µM
TGI [18]: 52.9 µM
TGI [19]: 32.5 µM
TGI [20]: 31.8 µM
TGI [21]: 30.8 µM
TGI [22]: 62.7 µM
TGI [23]: 74.7 µM
TGI [24]: 95.8 µM
TGI [25]: 34.5 µM
TGI [26]: 66.5 µM
TGI [27]: 43.2 µM
TGI [28]: 59.8 µM
TGI [29]: 61.2 µM
TGI [30]: 34.4 µM
TGI [31]: 43.5 µM
TGI [32]: 29.7 µM
TGI [33]: 64.8 µM
TGI [34]: 89 µM
TGI [35]: 23.2 µM
TGI [36]: > 100 µM
TGI [37]: 54.6 µM
TGI [38]: 29.6 µM
TGI [59]: 41.9 µM
TGI [39]: 37.3 µM
TGI [41]: 46.9 µM
TGI [42]: 32.1 µM
TGI [43]: 58.3 µM
TGI [44]: 35.9 µM
TGI [45]: 36 µM
TGI [46]: 52.8 µM
TGI [48]: 77.9 µM
TGI [49]: 35.7 µM
TGI [50]: 79.3 µM
TGI [51]: 28.5 µM
TGI [52]: 29.7 µM
TGI [53]: 29.4 µM
TGI [54]: 32.8 µM
TGI [55]: 30.3 µM
TGI [56]: 53.3 µM
TGI [57]: 47.8 µM
